Structures can show the parent of a compound that is named as a salt. Marks after values point to notes of the source that are not given here.
How the values were obtained:
[1] = tested on: A375P F11s; assay: In vivo tumor growth, A375P F11s subcutaneous tumors; set-up: species or system athymic mice; key: −: no response; +: growth delay (1-2×doubling); ++: growth delay (>2×doubling); +++: stable disease; ++++: partial regression; +++++: complete regression; conditions: oral, 14-day period
Procedure: (§1) A375P F11s and Colo205 cells were cultured in RPMI 1640 medium supplemented with 10% fetal bovine serum and 1% sodium pyruvate or 10% fetal bovine serum and without sodium pyruvate, respectively. Tumor cells (1.75×10^6 A375P F11 s or 5×10^6 Colo205) were implanted subcutaneously into the right flank of athymic mice on Day 1. To facilitate their growth, A375P F11s cells were suspended in Matrigel diluted 1:1 in phosphate-buffered saline before implantation. When tumors had reached approximately 200 mm^3 in volume (Day 19-22), tumor-bearing mice were randomized into study groups (n=7 or 8). Animals were dosed orally once or twice daily for a 14-day period. The compound of Example 19b was dosed in a 0.5% HPMC/0.2% Tween 80 pH 7-8 vehicle. Tumor growth was measured twice a week using calipers for the duration of the study. Tumor volumes were calculated as a product of (length×width×width)/2 and median values were used to compare groups. Complete regressions (CR) were defined as three consecutive tumor measurements of ≦13.5 mm^3. Partial regressions were defined as three consecutive measurements of ≦50% of starting tumor volume. Tumor growth delay was defined as the difference in time taken for treated and control groups to reach 1000 mm^3 (T-C1000).

[2] = tested on: Colo205; assay: In vivo tumor growth, Colo205 subcutaneous tumors; set-up: species or system athymic mice; key: −: no response; +: growth delay (1-2×doubling); ++: growth delay (>2×doubling); +++: stable disease; ++++: partial regression; +++++: complete regression; conditions: oral, 14-day period
Procedure: as §1

SMILES: COc1cc(N2CCN(CCS(C)(=O)=O)CC2)c(C)cc1Nc1nccc(-c2sc(C(C)C)nc2-c2cccc(NS(=O)(=O)c3c(F)cccc3F)c2)n1 [Example 19b, 2,6-Difluoro-N-(3-(2-(1-methylethyl)-5-(24(5-methyl-2-(methyloxy)-4-(4-[2-(methylsulfonyl)ethyl]-1-piperazinyl}phenyl)amino]-4-pyrimidinyl}-1,3-thiazol-4-yl)phenyl]benzenesulfonamide dihydrochloride]
- Response ([1]; 1 mg/kg bid): −
- Response ([1]; 3 mg/kg bid): +
- Response ([1]; 10 mg/kg bid): ++
- Response ([1]; 30 mg/kg bid): ++++
- Response ([1]; 30 mg/kg qd, during dosing): +++ (during dosing)*
- Response ([2]; 30 mg/kg bid): ++
- Response ([2]; 30 mg/kg qd): −
- Response ([2]; 100 mg/kg bid): ++++
- Response ([2]; 300 mg/kg qd): ++++
